Data: patent US12018021B2 (UCB Biopharma SRL, priority 2018, dated 2024)

Biological target: IgE-Tb / sFcεRIα-Y131A-AF488 (Homo sapiens, UniProt P01854, N146Q/N252Q)
Experiment: IgE-Tb / sFcεRIα-Y131A-AF488 FRET assay (protocol for examples 234 to 501)
Type: binding
Conditions: examples 234 to 501: compound with IgE-Tb 30 minutes before sFcεRIα-Y131A-AF488, incubated 18 hours at room temperature; read-out: Y131A FRET IC50 range
Description: For examples 234 to 501, the assay was conducted according to the following: Each assay reaction was conducted in a volume of 25 μl in a 384-well half-volume plate. 10 point compound serial dilutions (3-fold) were generated in DMSO at a concentration of ×50 that of the final assay concentration (FAC). Compound solutions were then prepared by diluting 10-fold in assay buffer. For the assay, 5l of diluted compound was added to 10 μl of IgE-Tb and incubated for 30 minutes before the addition of 10 μ[…]. FRET reagents FACs were 5 nM IgE-Tb, 25 nM […]. Usually the top FAC of compound in the assay was 10 μM. The final DMSO concentration was 2%. […] The maximum FRET signal (MAX) was measured in wells containing FRET reagents but no compound. The assay was incubated for 18 hours at room temperature, protected from light and evaporation, and with gentle agitation. Measurement of FRET for each well was carried out by exciting at 337 nm and measuring emission at 490/520 nm using a PHERAstar FSX plate reader (BMG Labtech). FRET ratio was calculated as follows: Emission at 520/7Emission at 490×1000. The FRET ratio was used for the data analysis. […] Z' above 0.5 was considered a good assay. Background signal (MIN) was subtracted from all wells. […] Percent inhibition was plotted against compound concentration. IC50 values for each compound were determined using four parameter logistic fit model using the XLFIT5 software package.

Sequence of IgE-Tb / sFcεRIα-Y131A-AF488 (P01854 whole entry N146Q/N252Q): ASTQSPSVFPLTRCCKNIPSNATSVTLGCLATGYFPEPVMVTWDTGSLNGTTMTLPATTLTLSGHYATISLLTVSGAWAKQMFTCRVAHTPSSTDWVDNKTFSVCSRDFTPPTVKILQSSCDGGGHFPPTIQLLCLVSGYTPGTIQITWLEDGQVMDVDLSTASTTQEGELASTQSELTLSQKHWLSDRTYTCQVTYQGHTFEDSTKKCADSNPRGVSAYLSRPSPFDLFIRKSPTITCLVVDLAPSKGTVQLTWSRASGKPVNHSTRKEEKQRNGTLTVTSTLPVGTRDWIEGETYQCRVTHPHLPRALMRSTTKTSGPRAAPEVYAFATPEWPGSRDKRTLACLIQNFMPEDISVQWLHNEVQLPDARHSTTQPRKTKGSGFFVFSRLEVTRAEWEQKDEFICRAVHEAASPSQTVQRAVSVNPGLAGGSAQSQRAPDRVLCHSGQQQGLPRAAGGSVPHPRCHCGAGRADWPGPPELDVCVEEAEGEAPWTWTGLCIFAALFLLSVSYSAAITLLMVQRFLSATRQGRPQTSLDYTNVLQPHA

Row | Structure (SMILES) | IC50 [nM]
1 | Cc1c(Nc2nncn2[C@H]2CCc3sc(NC(=O)C4CC4)c(C(=O)NCC4CC4)c3C2)cccc1S(C)(=N)=O (mixture of isomers) [Example 235, (5S)-2-cyclopropaneamido-N-(cyclopropylmethyl)-5-[3-({3-[imino(methyl)oxo-lambda6-sulfanyl]-2-methylphenyl}amino)-4H-1,2,4-triazol-4-yl]-4,5,6,7-tetrahydro-1-benzothiophene-3-carboxamide] | < 1000
2 | CC(=O)N1CCC(C)(Nc2nncn2[C@H]2CCc3sc(NC(=O)C4CC4)c(C(=O)NCC4CC4)c3C2)C1 (mixture of isomers) [Example 238, (5S)-5-{3-[(1-acetyl-3-methylpyrrolidin-3-yl)amino]-4H-1,2,4-triazol-4-yl}-2-cyclopropaneamido-N-(cyclopropylmethyl)-4,5,6,7-tetrahydro-1-benzothiophene-3-carboxamide] | < 1000
3 | CS(=N)(=O)c1cccc(Nc2nncn2[C@H]2CCc3sc(NC(=O)C4CC4)c(C(=O)NCC4CC4)c3C2)c1 (mixture of isomers) [Example 252, (5S)-2-(cyclopropanecarbonylamino)-N-(cyclopropylmethyl)-5-[3-[3-(methylsulfonimidoyl)anilino]-1,2,4-triazol-4-yl]-4,5,6,7-tetrahydrobenzothiophene-3-carboxamide] | < 1000
4 | Cc1ccc(C2CC(Nc3nncn3[C@H]3CCc4sc(NC(=O)C5CC5)c(C(=O)NCC5CC5)c4C3)C2)cn1 (mixture of isomers) [Example 275, (5S)-2-(cyclopropanecarbonylamino)-N-(cyclopropylmethyl)-5-[3-[[3-(6-methyl-3-pyridyl)cyclobutyl]amino]-1,2,4-triazol-4-yl]-4,5,6,7-tetrahydrobenzothiophene-3-carboxamide] | < 1000
5 | Cn1nc(OC(F)F)cc1Nc1nncn1[C@H]1CCc2sc(NC(=O)C3CC3(F)F)c(C(=O)NCC3CC3)c2C1 (mixture of isomers) [Example 344, (5S)—N-(cyclopropylmethyl)-2-[(2,2-difluorocyclopropanecarbonyl)amino]-5-[3-[[5-(difluoromethoxy)-2-methylpyrazol-3-yl]amino]-1,2,4-triazol-4-yl]-4,5,6,7-tetrahydro-1-benzothiophene-3-carboxamide] | < 1000
6 | Cn1nc(OC(F)F)cc1Nc1nncn1[C@H]1CCc2sc(NC(=O)[C@H]3C[C@H]3F)c(C(=O)NCC3CC3)c2C1 (mixture of isomers) [Example 348, (5S)—N-(cyclopropylmethyl)-5-[3-[[5-(difluoromethoxy)-2-methylpyrazol-3-yl]amino]-1,2,4-triazol-4-yl]-2-[[(1RS,2RS)-2-fluorocyclopropanecarbonyl]amino]-4,5,6,7-tetrahydro-1-benzothiophene-3-carboxamide] | < 1000
7 | Cn1nc(C(F)(F)F)cc1Nc1nncn1[C@H]1CCc2sc(NC(=O)[C@H]3C[C@H]3F)c(C(=O)NCC3CC3)c2C1 (mixture of isomers) [Example 355, (5S)—N-(cyclopropylmethyl)-2-[[(1RS,2RS)-2-fluorocyclopropanecarbonyl]amino]-5-[3-[[2-methyl-5-(trifluoromethyl)pyrazol-3-yl]amino]-1,2,4-triazol-4-yl]-4,5,6,7-tetrahydro-1-benzothiophene-3-carboxamide] | < 1000
8 | Cn1nc(C(F)F)cc1Nc1nncn1[C@H]1CCc2sc(NC(=O)[C@H]3C[C@H]3F)c(C(=O)NCC3CC3)c2C1 (mixture of isomers) [Example 361, (5S)—N-(cyclopropylmethyl)-5-[3-[[5-(difluoromethyl)-2-methylpyrazol-3-yl]amino]-1,2,4-triazol-4-yl]-2-[[(1RS,2RS)-2-fluorocyclopropanecarbonyl]amino]-4,5,6,7-tetrahydro-1-benzothiophene-3-carboxamide] | < 1000
9 | Cn1nc(C(F)F)cc1Nc1nncn1[C@H]1CCc2sc(NC(=O)C3CC3(F)F)c(C(=O)NCC3CC3)c2C1 (mixture of isomers) [Example 364, (5S)—N-(cyclopropylmethyl)-2-[(2,2-difluorocyclopropanecarbonyl)amino]-5-[3-[[5-(difluoromethyl)-2-methylpyrazol-3-yl]amino]-1,2,4-triazol-4-yl]-4,5,6,7-tetrahydro-1-benzothiophene-3-carboxamide] | < 1000
10 | CC1CC1C(=O)Nc1sc2c(c1C(=O)NCC1CC1)C[C@@H](n1cnnc1Nc1cc(C(F)F)nn1C)CC2 (mixture of isomers) [Example 369, (5S)—N-(cyclopropylmethyl)-5-[3-[[5-(difluoromethyl)-2-methylpyrazol-3-yl]amino]-1,2,4-triazol-4-yl]-2-[(2-methylcyclopropanecarbonyl)amino]-4,5,6,7-tetrahydro-1-benzothiophene-3-carboxamide] | < 1000
11 | Cn1nc(C(F)F)cc1Nc1nncn1[C@H]1CCc2sc(NC(=O)C3CC3)c(C(=O)NCC3CC3(F)F)c2C1 (mixture of isomers) [Example 381, (5S)-2-(cyclopropanecarbonylamino)-N-[(2,2-difluorocyclopropyl)methyl]-5-[3-[[5-(difluoromethyl)-2-methylpyrazol-3-yl]amino]-1,2,4-triazol-4-yl]-4,5,6,7-tetrahydro-1-benzothiophene-3-carboxamide] | < 1000
12 | Cn1nc(C(F)F)cc1Nc1nncn1[C@H]1CCc2sc(NC(=O)C3CC3)c(C(=O)NCC3CC34CC4)c2C1 (mixture of isomers) [Example 384, (5S)-2-(cyclopropanecarbonylamino)-5-[3-[[5-(difluoromethyl)-2-methylpyrazol-3-yl]amino]-1,2,4-triazol-4-yl]-N-(spiro[2.2]pentan-2-ylmethyl)-4,5,6,7-tetrahydro-1-benzothiophene-3-carboxamide] | < 1000
13 | Cn1nc(C(F)(F)F)cc1Nc1nncn1[C@H]1CCc2sc(NC(=O)[C@H]3C[C@H]3F)c(C(=O)NCC3CC3(F)F)c2C1 (mixture of isomers) [Example 396, (5S)—N-[(2,2-difluorocyclopropyl)methyl]-2-[[(1R,2R)-2-fluorocyclopropanecarbonyl]amino]-5-[3-[[2-methyl-5-(trifluoromethyl)pyrazol-3-yl]amino]-1,2,4-triazol-4-yl]-4,5,6,7-tetrahydro-1-benzothiophene-3-carboxamide] | < 1000
14 | Cn1nc(C(F)(F)F)cc1Nc1nncn1[C@H]1CCc2sc(NC(=O)[C@H]3C[C@H]3F)c(C(=O)NC[C@H]3C[C@H](F)C3)c2C1 (mixture of isomers) [Example 400, (5S)—N-[trans-(3-fluorocyclobutyl)methyl]-2-[[(1R,2R)-2-fluorocyclopropanecarbonyl]amino]-5-[3-[[2-methyl-5-(trifluoromethyl)pyrazol-3-yl]amino]-1,2,4-triazol-4-yl]-4,5,6,7-tetrahydro-1-benzothiophene-3-carboxamide] | < 1000
15 | Cn1nc(C(F)F)cc1Nc1nncn1[C@H]1CCc2sc(NC(=O)[C@H]3CC34CC4)c(C(=O)NCC3CC3(F)F)c2C1 (mixture of isomers) [Example 408, (5S)—N-[(2,2-Difluorocyclopropyl)methyl]-5-[3-[[5-(difluoromethyl)-2-methylpyrazol-3-yl]amino]-1,2,4-triazol-4-yl]-2-[[(2S)-spiro [2.2]pentane-2-carbonyl]amino]-4,5,6,7-tetrahydro-1-benzothiophene-3-carboxamide] | < 1000
16 | Cn1nc(C(F)F)cc1Nc1nncn1[C@H]1CCc2sc(NC(=O)[C@H]3CC34CC4)c(C(=O)NC3CC34CC4)c2C1 (mixture of isomers) [Example 411, (5S)-5-[3-[[5-(Difluoromethyl)-2-methylpyrazol-3-yl]amino]-1,2,4-triazol-4-yl]-2-[[(2S)-spiro[2.2]pentane-2-carbonyl]amino]-N-spiro[2.2]pentan-2-yl-4,5,6,7-tetrahydro-1-benzothiophene-3-carboxamide] | < 1000
17 | CCOC(=O)c1c(NC(=O)C2CC23CC3)sc2c1C[C@@H](n1cnnc1Nc1cc(C(F)F)nn1C)CC2 (mixture of isomers) [Example 417a, Ethyl (5S)-5-[3-[[5-(difluoromethyl)-2-methyl-pyrazol-3-yl]amino]-1,2,4-triazol-4-yl]-2-(spiro[2.2]pentane-2-carbonylamino)-4,5,6,7-tetrahydrobenzothiophene-3-carboxylate] | < 1000
18 | Cn1nc(OC(F)F)cc1Nc1nncn1[C@H]1CCc2sc(NC(=O)C3CC3)c(C(=O)NC3CC34CC4)c2C1 (mixture of isomers) [Example 452, (5S)-2-(cyclopropanecarbonylamino)-5-[3-[[5-(difluoromethoxy)-2-methylpyrazol-3-yl]amino]-1,2,4-triazol-4-yl]-N-spiro[2.2]pentan-2-yl-4,5,6,7-tetrahydro-1-benzothiophene-3-carboxamide] | < 1000
19 | Cn1nc(OC(F)F)cc1Nc1nncn1[C@H]1CCc2sc(NC(=O)C3CC3)c(C(=O)NC[C@H]3C[C@H]3F)c2C1 (mixture of isomers) [Example 454, (5S)-2-(cyclopropanecarbonylamino)-5-[3-[[5-(difluoromethoxy)-2-methylpyrazol-3-yl]amino]-1,2,4-triazol-4-yl]-N-[[(1RS,2RS)-2-fluorocyclopropyl]methyl]-4,5,6,7-tetrahydro-1-benzothiophene-3-carboxamide] | < 1000
